Test results as given in patent US20090221642A1, “MUSCARINIC RECEPTOR AGONISTS, COMPOSITIONS, METHODS OF TREATMENT THEREOF, AND PROCESSES FOR PREPARATION THEREOF-176” (AstraZeneca AB, priority 2008, published 2009).

How the values were obtained:
[1] = target: T1, cloned human M2 receptor (human Muscarinic receptor subtype 2) (Homo sapiens, UniProt P08172); test: hM2 receptor GTPγS binding; type: biochemical; settings: CHO cell membranes expressing hM2; [35S]GTPγS binding; read-out: hM2 EC50
T1 construct: purchased Perkin-Elmer RBHM2M; host or cells: Chinese hamster ovary cells (CHO) membranes
T1 sequence (P08172 1-466): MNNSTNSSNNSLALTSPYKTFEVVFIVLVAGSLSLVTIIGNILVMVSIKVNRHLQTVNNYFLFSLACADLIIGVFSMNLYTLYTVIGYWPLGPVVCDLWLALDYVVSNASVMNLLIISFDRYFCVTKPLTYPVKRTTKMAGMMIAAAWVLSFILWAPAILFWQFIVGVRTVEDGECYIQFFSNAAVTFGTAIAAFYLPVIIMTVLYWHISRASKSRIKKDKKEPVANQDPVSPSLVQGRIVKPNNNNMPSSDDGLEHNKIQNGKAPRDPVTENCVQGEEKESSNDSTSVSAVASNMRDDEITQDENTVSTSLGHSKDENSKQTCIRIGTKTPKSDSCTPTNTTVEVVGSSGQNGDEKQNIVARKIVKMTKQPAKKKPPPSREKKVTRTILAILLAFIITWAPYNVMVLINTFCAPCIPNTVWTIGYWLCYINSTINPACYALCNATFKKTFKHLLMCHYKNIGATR
Protocol: hM2 Receptor GTPγS Binding
Membranes produced from Chinese hamster ovary cells (CHO) expressing the cloned human M2 receptor (human Muscarinic receptor subtype 2, gene bank access NM_000739), are obtained from Perkin-Elmer (RBHM2M). The membranes are thawed at 37° C., passed 3 times through a 23-gauge blunt-end needle, diluted in the GTPγS binding buffer (50 mM Hepes, 20 mM NaOH, 100 mM NaCl, 1 mM EDTA, 5 mM MgCl2, pH 7.4, 100 μM DTT). The EC50, IC50 and Emax of the compounds of the invention are evaluated from 10-point dose-response curves (three fold concentration range) done in 60 μl in 384-well non-specific binding surface plate (Corning). Ten microliters from the dose-response curves plate (5× concentration) are transferred to another 384 well plate containing 25 μl of the following: 5 μg of hM2 membranes, 500 μg of Flashblue beads (Perkin-Elmer) and GDP 25 μM. An additional 15 μl containing 3.3× (60,000 dpm) of GTPγ^35S (0.4 nM final) are added to the wells resulting in a total well volume of 50 μl. Basal and maximal stimulated [^35S]GTPγS binding are determined in absence and presence of 30 μM final of acetylcholine agonist. The membranes/beads mix are pre-incubated for 15 minutes at room temperature with 25 μM GDP prior to distribution in plates (12.5 μM final). The reversal of acetylcholine-induced stimulation (2 μM final) of [^35S]GTPγS binding is used to assay the antagonist properties (IC50) of the compounds. The plates are incubated for 60 minutes at room temperature then centrifuged at 400 rpm for 5 minutes. The radioactivity (cpm) is counted in a Trilux (Perkin-Elmer).
(§1) Values of EC50, IC50 and Emax are obtained using sigmoidal fits of a non-linear curve-fitting program (XLfit version 4.2.2 Excel add-in version 4.2.2 build 18 math 1Q version 2.1.2 build 18) of percent stimulated [^35S]GTPγS binding vs. log(molar ligand). All pEC50 and plC50 values are reported as arithmetic means ±standard error of mean of ‘n’ independent experiments.

[2] = target: T2, cloned human M4 receptor (human Muscarinic receptor subtype 4) (Homo sapiens, UniProt P08173); test: hM4 receptor GTPγS binding; type: biochemical; settings: CHO cell membranes expressing hM4; [35S]GTPγS binding; read-out: hM4 EC50
T2 construct: purchased Perkin-Elmer RBHM4M; host or cells: Chinese hamster ovary cells (CHO) membranes
T2 sequence (P08173 1-479): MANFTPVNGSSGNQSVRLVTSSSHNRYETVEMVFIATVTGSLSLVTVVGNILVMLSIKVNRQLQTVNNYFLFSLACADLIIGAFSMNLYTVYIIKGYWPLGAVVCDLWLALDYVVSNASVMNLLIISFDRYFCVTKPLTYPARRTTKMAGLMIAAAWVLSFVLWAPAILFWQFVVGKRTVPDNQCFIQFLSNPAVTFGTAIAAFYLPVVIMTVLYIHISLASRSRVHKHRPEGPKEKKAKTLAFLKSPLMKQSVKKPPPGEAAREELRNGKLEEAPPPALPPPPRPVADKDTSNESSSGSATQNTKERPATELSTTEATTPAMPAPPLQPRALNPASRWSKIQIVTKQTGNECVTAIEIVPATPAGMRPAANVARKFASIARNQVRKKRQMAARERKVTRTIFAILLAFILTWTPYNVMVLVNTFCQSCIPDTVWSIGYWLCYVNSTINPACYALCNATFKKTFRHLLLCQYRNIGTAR
Protocol: hM4 Receptor GTPγS Binding
Membranes produced from Chinese hamster ovary cells (CHO) expressing the cloned human M4 receptor (human Muscarinic receptor subtype 4, gene bank access NM_000741), are obtained from Perkin-Elmer (RBHM4M). The membranes are thawed at 37° C., passed 3 times through a 23-gauge blunt-end needle, diluted in the GTPγS binding buffer (50 mM Hepes, 20 mM NaOH, 100 mM NaCl, 1 mM EDTA, 5 mM MgCl2, pH 7.4, 100 μM DTT). The EC50, IC50 and Emax of the compounds of the invention are evaluated from 10-point dose-response curves (three fold concentration range) done in 60 μl in 384-well non-specific binding surface plate (Corning). Ten microliters from the dose-response curves plate (5× concentration) are transferred to another 384 well plate containing 25 μl of the following: 10 μg of hM4 membranes, 500 μg of Flashblue beads (Perkin-Elmer) and GDP 40 μM. An additional 15 μl containing 3.3× (60,000 dpm) of GTPγ^35S (0.4 nM final) are added to the wells resulting in a total well volume of 50 μl. Basal and maximal stimulated [^35S]GTPγS binding are determined in absence and presence of 30 μM final of acetylcholine agonist. The membranes/beads mix are pre-incubated for 15 minutes at room temperature with 40 μM GDP prior to distribution in plates (20 μM final). The reversal of acetylcholine-induced stimulation (10 μM final) of [^35S]GTPγS binding is used to assay the antagonist properties (IC50) of the compounds. The plates are incubated for 60 minutes at room temperature then centrifuged at 400 rpm for 5 minutes. The radioactivity (cpm) is counted in a Trilux (Perkin-Elmer).
as §1

Row | SMILES | EC50 [1] | EC50 [2]
1 | CC1(N2CCC(n3c(=O)[nH]c4ccc(F)cc43)CC2)CCN(C(=O)OCCF)C1 (single isomer, unassigned) [Example 53, 2-fluoroethyl 3-(4-(6-fluoro-2-oxo-2,3-dihydro-1H-benzo[d]imidazol-1-yl)piperidin-1-yl)-3-methylpyrrolidine-1-carboxylate] | 1620 nM | 5570 nM
2 | CCOC(=O)N1CCC(C)(N2CCC(n3c(=O)[nH]c4cc(F)c(C)cc43)CC2)C1 (single isomer, unassigned) [Example 55, ethyl 3-(4-(5-fluoro-6-methyl-2-oxo-2,3-dihydro-1H-benzo[d]imidazol-1-yl)piperidin-1-yl)-3-methylpyrrolidine-1-carboxylate] | 319 nM | 1710 nM
3 | CCOC(=O)N1CCC(C)(N2CCC(n3c(=O)[nH]c4cc(F)c(C)cc43)CC2)C1 (single isomer, unassigned) [Example 56, ethyl 3-(4-(5-fluoro-6-methyl-2-oxo-2,3-dihydro-1H-benzo[d]imidazol-1-yl)piperidin-1-yl)-3-methylpyrrolidine-1-carboxylate] | 24 nM | 238 nM
4 | CCOC(=O)N1CCC(C)(N2CCC(n3c(=O)[nH]c4cc(F)c(F)cc43)CC2)C1 (single isomer, unassigned) [Example 57, ethyl 3-(4-(5,6-difluoro-2-oxo-2,3-dihydro-1H-benzo[d]imidazol-1-yl)piperidin-1-yl)-3-methylpyrrolidine-1-carboxylate] | 428 nM | 2200 nM
5 | CCOC(=O)N1CCC(C)(N2CCC(n3c(=O)[nH]c4cc(F)c(F)cc43)CC2)C1 (single isomer, unassigned) [Example 58, ethyl 3-(4-(5,6-difluoro-2-oxo-2,3-dihydro-1H-benzo[d]imidazol-1-yl)piperidin-1-yl)-3-methylpyrrolidine-1-carboxylate] | 2100 nM | 9810 nM
6 | COC(=O)N1CCC(C)(N2CCC(n3c(=O)[nH]c4cc(F)c(F)cc43)CC2)C1 (single isomer, unassigned) [Example 60, methyl 3-(4-(5,6-difluoro-2-oxo-2,3-dihydro-1H-benzo[d]imidazol-1-yl)piperidin-1-yl)-3-methylpyrrolidine-1-carboxylate] | 1030 nM | 5080 nM
7 | CC1(N2CCC(n3c(=O)[nH]c4cc(F)c(F)cc43)CC2)CCN(C(=O)OCCF)C1 (single isomer, unassigned) [Example 61, 2-fluoroethyl 3-(4-(5,6-difluoro-2-oxo-2,3-dihydro-1H-benzo[d]imidazol-1-yl)piperidin-1-yl)-3-methylpyrrolidine-1-carboxylate] | 1710 nM | 4420 nM
8 | COC(=O)N1CCC(C)(N2CCC(N3C(=O)Cc4ccc(C)cc43)CC2)C1 (single isomer, unassigned) [Example 67, methyl 3-methyl-3-(4-(6-methyl-2-oxoindolin-1-yl)piperidin-1-yl)pyrrolidine-1-carboxylate] | 4650 nM | 15100 nM
9 | COC(=O)N1CCC(C)(N2CCC(N3C(=O)Cc4ccc(C)cc43)CC2)C1 (single isomer, unassigned) [Example 68, methyl 3-methyl-3-(4-(6-methyl-2-oxoindolin-1-yl)piperidin-1-yl)pyrrolidine-1-carboxylate] | 1150 nM | 6210 nM
10 | CCOC(=O)N1CCC(C)(N2CCC(N3C(=O)Cc4ccc(C)cc43)CC2)C1 (single isomer, unassigned) [Example 69, ethyl 3-methyl-3-(4-(6-methyl-2-oxoindolin-1-yl)piperidin-1-yl)pyrrolidine-1-carboxylate] | 1860 nM | 8920 nM
11 | CCOC(=O)N1CCC(C)(N2CCC(N3C(=O)Cc4ccc(C)cc43)CC2)C1 (single isomer, unassigned) [Example 70, ethyl 3-methyl-3-(4-(6-methyl-2-oxoindolin-1-yl)piperidin-1-yl)pyrrolidine-1-carboxylate] | 448 nM | 1770 nM
12 | CCOC(=O)N1CCC(C)(N2CCC(N3C(=O)Cc4ccccc43)CC2)C1 (single isomer, unassigned) [Example 72, ethyl 3-methyl-3-(4-(2-oxoindolin-1-yl)piperidin-1-yl)pyrrolidine-1-carboxylate] | 950 nM | > 90000 nM
13 | CCOC(=O)N1CCC(C)(N2CCC(N3C(=O)Cc4ccccc43)CC2)C1 (single isomer, unassigned) [Example 73, ethyl 3-methyl-3-(4-(2-oxoindolin-1-yl)piperidin-1-yl)pyrrolidine-1-carboxylate] | 6160 nM | > 90000 nM
14 | CCOC(=O)N1CCC(C)(N2CCC(N3C(=O)Cc4ccc(F)cc43)CC2)C1 (single isomer, unassigned) [Example 74, ethyl 3-(4-(6-fluoro-2-oxoindolin-1-yl)piperidin-1-yl)-3-methylpyrrolidine-1-carboxylate] | 1340 nM | 3600 nM
15 | CCOC(=O)N1CCC(C)(N2CCC(N3C(=O)Cc4ccc(F)cc43)CC2)C1 (single isomer, unassigned) [Example 75, ethyl 3-(4-(6-fluoro-2-oxoindolin-1-yl)piperidin-1-yl)-3-methylpyrrolidine-1-carboxylate] | 2620 nM | > 18900 nM
16 | COC(=O)N1CCC(C)(N2CCC(N3C(=O)Cc4ccc(F)cc43)CC2)C1 (single isomer, unassigned) [Example 76, methyl 3-(4-(6-fluoro-2-oxoindolin-1-yl)piperidin-1-yl)-3-methylpyrrolidine-1-carboxylate] | 3500 nM | > 90000 nM
17 | CCOC(=O)N1CCC(C)(N2CCC(N3C(=O)Cc4cc(F)ccc43)CC2)C1 (single isomer, unassigned) [Example 79, ethyl 3-(4-(5-fluoro-2-oxoindolin-1-yl)piperidin-1-yl)-3-methylpyrrolidine-1-carboxylate] | 1130 nM | 4330 nM
